In ChEMBL document CHEMBL4265943, “Design and synthesis of potent dual inhibitors of JAK2 and HDAC based on fusing the pharmacophores of XL019 and vorinostat” (Eur J Med Chem, 2018):

Legend:
[1] = target: Tyrosine-protein kinase JAK2 (Homo sapiens, UniProt O60674); experiment: Inhibition of human JAK2 using poly(Glu:Tyr)(4:1) as substrate preincubated for 20 mins followed by [gamma33P]ATP addition measured after 120 mins by ion exchange filter paper method
[2] = target: Histone deacetylase 1 (Homo sapiens, UniProt Q13547); experiment: Inhibition of HDAC1 (unknown origin) using Arg-His-Lys-Lys(Ac) as substrate preincubated with enzyme followed by substrate addition for 2 hrs and measured for 1.5 hrs at 15 mins time interval by fluorescence assay
Sequence of Histone deacetylase 1 (Q13547 whole entry): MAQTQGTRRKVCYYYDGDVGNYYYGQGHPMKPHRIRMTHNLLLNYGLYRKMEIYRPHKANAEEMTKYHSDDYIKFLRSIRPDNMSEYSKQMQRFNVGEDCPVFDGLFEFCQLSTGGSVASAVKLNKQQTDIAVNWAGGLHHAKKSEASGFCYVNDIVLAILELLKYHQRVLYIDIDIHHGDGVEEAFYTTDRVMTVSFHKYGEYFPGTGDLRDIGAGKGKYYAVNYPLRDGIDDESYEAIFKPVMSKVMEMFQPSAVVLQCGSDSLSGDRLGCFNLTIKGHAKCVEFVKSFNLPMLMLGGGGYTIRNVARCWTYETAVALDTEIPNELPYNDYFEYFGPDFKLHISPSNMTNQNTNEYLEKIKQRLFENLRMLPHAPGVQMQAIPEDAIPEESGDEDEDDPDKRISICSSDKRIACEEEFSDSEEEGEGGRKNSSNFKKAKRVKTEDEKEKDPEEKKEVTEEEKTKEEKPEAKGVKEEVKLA

[3] = target: T1, Protein deacetylase HDAC6 (Homo sapiens, UniProt Q9UBN7); experiment: Inhibition of HDAC6 (unknown origin) using Arg-His-Lys-Lys(Ac) as substrate preincubated with enzyme followed by substrate addition for 2 hrs and measured for 1.5 hrs at 15 mins time interval by fluorescence assay
T1 sequence (Q9UBN7 whole entry): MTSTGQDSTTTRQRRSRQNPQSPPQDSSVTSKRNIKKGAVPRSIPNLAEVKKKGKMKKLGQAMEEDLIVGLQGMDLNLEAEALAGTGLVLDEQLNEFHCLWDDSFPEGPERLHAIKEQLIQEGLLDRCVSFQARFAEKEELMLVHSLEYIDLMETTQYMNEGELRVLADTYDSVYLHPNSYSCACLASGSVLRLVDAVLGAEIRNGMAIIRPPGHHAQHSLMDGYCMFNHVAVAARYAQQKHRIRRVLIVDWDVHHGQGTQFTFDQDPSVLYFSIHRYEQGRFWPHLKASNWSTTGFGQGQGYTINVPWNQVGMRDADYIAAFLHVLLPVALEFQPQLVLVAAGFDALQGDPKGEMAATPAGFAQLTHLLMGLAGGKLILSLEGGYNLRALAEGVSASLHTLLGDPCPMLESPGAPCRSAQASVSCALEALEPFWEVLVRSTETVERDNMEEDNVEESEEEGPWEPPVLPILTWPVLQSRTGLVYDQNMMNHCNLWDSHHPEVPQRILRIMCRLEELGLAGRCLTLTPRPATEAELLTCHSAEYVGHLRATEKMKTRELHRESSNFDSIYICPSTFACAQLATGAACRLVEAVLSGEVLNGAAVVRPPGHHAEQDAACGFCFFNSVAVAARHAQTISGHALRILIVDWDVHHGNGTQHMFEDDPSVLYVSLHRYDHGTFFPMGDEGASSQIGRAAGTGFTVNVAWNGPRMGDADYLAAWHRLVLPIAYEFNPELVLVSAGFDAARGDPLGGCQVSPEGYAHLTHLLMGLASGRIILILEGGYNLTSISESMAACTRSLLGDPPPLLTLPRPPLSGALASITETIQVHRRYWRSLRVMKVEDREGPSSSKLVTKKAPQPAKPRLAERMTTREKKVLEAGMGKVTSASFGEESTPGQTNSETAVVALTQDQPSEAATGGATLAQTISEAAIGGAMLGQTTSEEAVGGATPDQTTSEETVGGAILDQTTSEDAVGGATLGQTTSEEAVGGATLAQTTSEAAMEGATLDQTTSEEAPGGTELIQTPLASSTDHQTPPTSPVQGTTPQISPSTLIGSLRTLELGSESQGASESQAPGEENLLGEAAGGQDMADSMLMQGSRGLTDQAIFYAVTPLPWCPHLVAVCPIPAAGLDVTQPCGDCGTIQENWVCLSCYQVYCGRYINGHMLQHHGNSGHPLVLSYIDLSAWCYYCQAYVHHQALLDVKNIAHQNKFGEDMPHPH

[4] = tested on: HCT-116; experiment: Antiproliferative activity against human HCT116 cells after 72 hrs by MTT assay; format: functional, cell-based; details: HCT-116, 72 h
[5] = tested on: MDA-MB-231; experiment: Antiproliferative activity against human MDA-MB-231 cells after 72 hrs by MTT assay; format: functional, cell-based; details: MDA-MB-231, 72 h
[6] = tested on: MCF7; experiment: Antiproliferative activity against human MCF7 cells after 72 hrs by MTT assay; format: functional, cell-based; details: MCF7, 72 h
[7] = tested on: PC-3; experiment: Antiproliferative activity against human PC3 cells after 72 hrs by MTT assay; format: functional, cell-based; details: PC-3, 72 h
[8] = Antiproliferative activity against human AC10 cells after 72 hrs by MTT assay; format: cell-based
[9] = Antiproliferative activity against mouse TAMH cells after 72 hrs by MTT assay; format: cell-based
[10] = Selectivity index, ratio of CC50 for human AC10 cells to IC50 for human HCT116 cells; format: toxicity; details: AC10 cells (CC50) and HCT116 cells (IC50)
[11] = Selectivity index, ratio of CC50 for mouse TAMH cells to IC50 for human HCT116 cells; format: toxicity; details: TAMH cells (CC50) and HCT116 cells (IC50)
[12] = Selectivity index, ratio of CC50 for human AC10 cells to IC50 for human MDA-MB-231 cells; format: toxicity; details: AC10 cells (CC50) and MDA-MB-231 cells (IC50)
[13] = Selectivity index, ratio of CC50 for mouse TAMH cells to IC50 for human MDA-MB-231 cells; format: toxicity; details: TAMH cells (CC50) and MDA-MB-231 cells (IC50)
[14] = Selectivity index, ratio of CC50 for human AC10 cells to IC50 for human MCF7 cells; format: toxicity; details: AC10 cells (CC50) and MCF7 cells (IC50)
[15] = Selectivity index, ratio of CC50 for mouse TAMH cells to IC50 for human MCF7 cells; format: toxicity; details: TAMH cells (CC50) and MCF7 cells (IC50)
[16] = Selectivity index, ratio of CC50 for human AC10 cells to IC50 for human PC3 cells; format: toxicity; details: AC10 cells (CC50) and PC3 cells (IC50)
[17] = Selectivity index, ratio of CC50 for mouse TAMH cells to IC50 for human PC3 cells; format: toxicity; details: TAMH cells (CC50) and PC3 cells (IC50)
[18] = tested on: HEL 92.1.7; experiment: cells; format: functional, cell-based; details: Homo sapiens, HEL 92.1.7, 72 h
Description: Antiproliferative activity against human HEL 92.1.7 cells after 72 hrs by MTT assay

[19] = tested on: Jurkat; experiment: Antiproliferative activity against human Jurkat cells after 72 hrs by MTT assay; format: functional, cell-based
[20] = tested on: KMS-12-BM; experiment: Antiproliferative activity against human KMS-12-BM cells after 72 hrs by MTT assay; format: functional, cell-based
[21] = Antiproliferative activity against human XG6 cells after 72 hrs by MTT assay; format: functional, cell-based; details: XG6, 72 h
[22] = Selectivity index, ratio of CC50 for human AC10 cells to IC50 for human HEL 92.1.7 cells; format: toxicity; details: AC10 cells (CC50) and HEL 92.1.7 cells (IC50)
[23] = Selectivity index, ratio of CC50 for mouse TAMH cells to IC50 for human HEL 92.1.7 cells; format: toxicity; details: TAMH cells (CC50) and HEL 92.1.7 cells (IC50)
[24] = Selectivity index, ratio of CC50 for human AC10 cells to IC50 for human Jurkat cells; format: toxicity; details: AC10 cells (CC50) and Jurkat cells (IC50)
[25] = Selectivity index, ratio of CC50 for mouse TAMH cells to IC50 for human Jurkat cells; format: toxicity; details: TAMH cells (CC50) and Jurkat cells (IC50)
[26] = Selectivity index, ratio of CC50 for human AC10 cells to IC50 for human KMS-12-BM cells; format: toxicity; details: AC10 cells (CC50) and KMS-12-BM cells (IC50)
[27] = Selectivity index, ratio of CC50 for mouse TAMH cells to IC50 for human KMS-12-BM cells; format: toxicity; details: TAMH cells (CC50) and KMS-12-BM cells (IC50)
[28] = Selectivity index, ratio of CC50 for human AC10 cells to IC50 for human XG6 cells; format: toxicity; details: AC10 cells (CC50) and XG6 cells (IC50)
[29] = Selectivity index, ratio of CC50 for mouse TAMH cells to IC50 for human XG6 cells; format: toxicity; details: TAMH cells (CC50) and XG6 cells (IC50)

Sequence of Tyrosine-protein kinase JAK2 (O60674 whole entry): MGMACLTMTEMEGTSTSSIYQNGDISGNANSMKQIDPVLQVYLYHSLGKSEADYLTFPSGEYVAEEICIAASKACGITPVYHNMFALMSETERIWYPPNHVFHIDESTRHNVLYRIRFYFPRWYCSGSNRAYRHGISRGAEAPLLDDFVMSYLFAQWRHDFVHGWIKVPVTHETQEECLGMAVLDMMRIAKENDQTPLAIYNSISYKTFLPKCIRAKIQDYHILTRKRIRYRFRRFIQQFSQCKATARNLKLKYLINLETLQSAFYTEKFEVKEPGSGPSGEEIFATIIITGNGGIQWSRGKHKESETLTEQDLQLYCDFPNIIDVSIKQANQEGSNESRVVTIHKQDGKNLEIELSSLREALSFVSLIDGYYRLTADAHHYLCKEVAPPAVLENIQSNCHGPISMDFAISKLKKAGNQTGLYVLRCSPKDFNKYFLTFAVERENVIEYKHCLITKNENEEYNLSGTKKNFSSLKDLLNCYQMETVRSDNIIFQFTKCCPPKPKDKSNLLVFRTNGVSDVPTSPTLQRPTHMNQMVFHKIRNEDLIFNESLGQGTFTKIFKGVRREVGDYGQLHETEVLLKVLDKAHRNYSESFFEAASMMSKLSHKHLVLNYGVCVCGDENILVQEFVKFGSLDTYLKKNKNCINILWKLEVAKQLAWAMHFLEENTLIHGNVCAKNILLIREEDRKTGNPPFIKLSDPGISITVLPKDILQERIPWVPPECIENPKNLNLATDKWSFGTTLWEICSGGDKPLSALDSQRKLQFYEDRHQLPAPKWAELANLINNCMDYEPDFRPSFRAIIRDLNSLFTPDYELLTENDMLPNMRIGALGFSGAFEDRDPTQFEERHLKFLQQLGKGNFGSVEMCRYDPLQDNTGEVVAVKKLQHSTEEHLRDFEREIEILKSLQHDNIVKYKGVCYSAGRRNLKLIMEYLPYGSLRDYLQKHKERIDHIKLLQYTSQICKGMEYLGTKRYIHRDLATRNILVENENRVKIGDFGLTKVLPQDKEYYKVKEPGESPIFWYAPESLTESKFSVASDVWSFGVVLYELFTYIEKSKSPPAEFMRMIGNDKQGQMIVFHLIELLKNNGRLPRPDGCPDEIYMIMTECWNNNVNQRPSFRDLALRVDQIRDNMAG

Row | Structure (SMILES) | IC50 [1] [nM] | IC50 [2] [nM] | IC50 [3] [nM] | IC50 [4] [nM] | IC50 [5] [nM] | IC50 [6] [nM] | IC50 [7] [nM] | CC50 at 72 h [8] [nM] | CC50 at 72 h [9] [nM] | selectivity ratio [10] | selectivity ratio [11] | selectivity ratio [12] | selectivity ratio [13] | selectivity ratio [14] | selectivity ratio [15] | selectivity ratio [16] | selectivity ratio [17] | IC50 [18] [nM] | IC50 [19] [nM] | IC50 [20] [nM] | other results
1 | CC(=O)Nc1ccc(-c2ccnc(Nc3cccc(OCCCCCCCC(=O)NO)c3)n2)cc1 | 17 | 1040 | 6.7 | 1510 | 3610 | 1220 | 1640 | > 100000 | 2770 | > 66.2 | 1.83 | > 27.7 | 0.77 | > 82 | 2.27 | > 61 | 1.69 | 3340 | > 10000 | 680 | IC50 [21]: 7220 nM; selectivity ratio [22]: > 30; selectivity ratio [23]: 0.83; selectivity ratio [24]: 3; selectivity ratio [25]: < 0.28; selectivity ratio [26]: > 147; selectivity ratio [27]: 4.07; selectivity ratio [28]: > 13.9; selectivity ratio [29]: 0.38
2 | CC(=O)Nc1ccc(-c2nc(Nc3cccc(OCCCCCCCC(=O)NO)c3)ncc2C)cc1 | 2.93 | 4580 | 9.7 | 18400 | 11400 | 30800 | 32800 | 20100 to 20700 | 9140 | 1.12 | 0.5 | 1.81 | 0.8 | 0.67 | 0.3 | 0.63 | 0.28 | 8960 | 9990 | 540 | IC50 [21]: 8300 nM; selectivity ratio [22]: 2.31; selectivity ratio [23]: 1.02; selectivity ratio [24]: 0.23; selectivity ratio [25]: 0.91; selectivity ratio [26]: 38.3; selectivity ratio [27]: 17; selectivity ratio [28]: 2.49; selectivity ratio [29]: 1.1
3 | CC(=O)Nc1ccc(-c2ccnc(Nc3cccc(OCCCCCCC(=O)NO)c3)n2)cc1 | 3.6 | 83 | 1.8 | 660 | 1760 | 2420 | 1890 | 2990 | 7020 | 4.53 | 10.6 | 1.7 | 3.99 | 1.24 | 2.9 | 1.58 | 3.71 | 970 | 1060 | 350 | IC50 [21]: 4690 nM; selectivity ratio [22]: 3.08; selectivity ratio [23]: 7.24; selectivity ratio [24]: 2.92; selectivity ratio [25]: 6.65; selectivity ratio [26]: 8.54; selectivity ratio [27]: 20.1; selectivity ratio [28]: 0.64; selectivity ratio [29]: 1.5
4 | CC(=O)Nc1ccc(-c2ccnc(Nc3cccc(OCCCCCC(=O)NO)c3)n2)cc1 | 3.4 | 637 | 2.4 | 790 | 1240 | 2550 | 1660 | 2930 | 8860 | 3.71 | 11.2 | 2.36 | 7.15 | 1.15 | 3.47 | 1.77 | 5.34 | 1830 | 1190 | 200 | IC50 [21]: 3700 nM; selectivity ratio [22]: 1.61; selectivity ratio [23]: 4.85; selectivity ratio [24]: 1.35; selectivity ratio [25]: 7.45; selectivity ratio [26]: 14.7; selectivity ratio [27]: 44.3; selectivity ratio [28]: 0.79; selectivity ratio [29]: 2.39
